Assay results taken from ChEMBL document CHEMBL4028815, “Novel phosphonate analogs of sulforaphane: Synthesis, in vitro and in vivo anticancer activity” (Eur J Med Chem, 2017).
Activity calls are given as the source filed them. No cut-off for these calls is given here.

Tests used:
LoVo [1] = assay: Cell cycle arrest in human LoVo cells at 15 uM after 24 hrs by propidium iodide staining based flow cytometric method; assay type: functional
Mus musculus [2] = assay: Toxicity in BALB/c mdb mouse implanted with mouse 4T1 cells assessed as serum creatinine level at 300 umol/kg, ip administered five times weekly measured at 29 day post cell innoculum (reference value: 9.3 +/- 1.2 umol/L); assay type: organism-based; details: in vivo, 696 h
LoVo [3] = assay: Induction of apoptosis in human LoVo cells assessed as increase in early apoptotic cells at 15 uM after 24 hrs by APC-Annexin-V/propidium iodide staining based flow cytometric method relative to control; assay type: functional
[4] = Induction of apoptosis in human LoVo/DX cells assessed as increase in caspase3/7 activity at 15 uM using Ac-DEVD-ACC as substrate pretreated for 24 hrs followed by substrate addition measured for 2 hrs by fluorescence assay relative to control; assay type: functional
Mus musculus [5] = assay: Toxicity in BALB/c mdb mouse implanted with mouse 4T1 cells assessed as RBC level at 300 umol/kg, ip administered five times weekly measured at 29 day post cell innoculum (reference value: 8.6 +/- 0.9 10^6/uL); assay type: organism-based; details: in vivo, 696 h
LoVo [6] = assay: Induction of apoptosis in human LoVo cells assessed as necrotic cells at 15 uM after 24 hrs by APC-Annexin-V/propidium iodide staining based flow cytometric method (reference value: 10%); assay type: functional
Mus musculus [7] = assay: Nephrotoxicity in BALB/c mdb mouse implanted with mouse 4T1 cells assessed as kidney weight at 300 umol/kg, ip administered five times weekly measured at 29 day post cell innoculum (reference value: 0.136 +/- 0.006 g); assay type: toxicity, organism-based; details: in vivo, 696 h
4T1 [8] = assay: Anti-tumor activity against mouse 4T1 cells implanted in BALB/c mdb mouse assessed as tumor growth inhibition at 300 umol/kg, ip administered five times weekly measured on day 15 post cell innoculum relative to control; assay type: functional; details: 4T1, ip, 360 h, read-out: TGI
Mus musculus [9] = assay: Toxicity in BALB/c mdb mouse implanted with mouse 4T1 cells assessed as hematocrit at 300 umol/kg, ip administered five times weekly measured at 29 day post cell innoculum (reference value: 39.9 +/- 3.7 %); assay type: organism-based; details: in vivo, 696 h
Mus musculus [10] = assay: Toxicity in BALB/c mdb mouse implanted with mouse 4T1 cells assessed as serum PLT level at 300 umol/kg, ip administered five times weekly measured at 29 day post cell innoculum (reference value: 972 +/- 157 10^3/uL); assay type: organism-based; details: in vivo, 696 h
LoVo [11] = assay: Induction of apoptosis in human LoVo cells assessed as loss of mitochondrial membrane potential at 15 uM after 24 hrs by JC-1 staining based flow cytometric method relative to control; assay type: functional
Mus musculus [12] = assay: Toxicity in BALB/c mdb mouse implanted with mouse 4T1 cells assessed as hemoglobin level at 300 umol/kg, ip administered five times weekly measured at 29 day post cell innoculum (reference value: 15.1 +/- 1.5 g/dl); assay type: organism-based; details: in vivo, 696 h
Mus musculus [13] = assay: Hepatotoxicity in BALB/c mdb mouse implanted with mouse 4T1 cells assessed as liver weight at 300 umol/kg, ip administered five times weekly measured at 29 day post cell innoculum (reference value: 1.2 +/- 0.13 g); assay type: toxicity, organism-based; details: in vivo, 696 h
[14] = Induction of apoptosis in human LoVo/DX cells assessed as loss of mitochondrial membrane potential at 15 uM after 24 hrs by JC-1 staining based flow cytometric method relative to control; assay type: functional
Mus musculus [15] = assay: Toxicity in BALB/c mdb mouse implanted with mouse 4T1 cells assessed as body weight loss at 300 umol/kg, ip administered five times weekly measured on day 11 post cell innoculum; assay type: organism-based; details: in vivo
LoVo [16] = assay: Induction of apoptosis in human LoVo cells assessed as increase in caspase3/7 activity at 15 uM using Ac-DEVD-ACC as substrate pretreated for 24 hrs followed by substrate addition measured for 2 hrs by fluorescence assay relative to control; assay type: functional
Mus musculus [17] = assay: Toxicity in BALB/c mdb mouse implanted with mouse 4T1 cells assessed as WBC level at 300 umol/kg, ip administered five times weekly measured at 29 day post cell innoculum (reference value: 212.3 +/- 82.8 10^3/uL); assay type: organism-based; details: in vivo, 696 h
Mus musculus [18] = assay: Toxicity in BALB/c mdb mouse implanted with mouse 4T1 cells assessed as lung weight at 300 umol/kg, ip administered five times weekly measured at 29 day post cell innoculum (reference value: 0.2 +/- 0.018 g); assay type: organism-based; details: in vivo, 696 h
Mus musculus [19] = assay: Toxicity in BALB/c mdb mouse implanted with mouse 4T1 cells assessed as serum AST level at 300 umol/kg, ip administered five times weekly measured at 29 day post cell innoculum (reference value: 136 +/- 10.3 U/L); assay type: organism-based; details: in vivo, 696 h
4T1 [20] = assay: Anti-tumor activity against mouse 4T1 cells implanted in BALB/c mdb mouse assessed as lung metastasis at 300 umol/kg, ip administered five times weekly measured at 29 days post cell innoculum (reference value: 56 +/- 25); assay type: functional
Mus musculus [21] = assay: Toxicity in BALB/c mdb mouse implanted with mouse 4T1 cells assessed as serum ALT level at 300 umol/kg, ip administered five times weekly measured at 29 day post cell innoculum (reference value: 23.8 +/- 2.2 U/L); assay type: organism-based; details: in vivo, 696 h
Mus musculus [22] = assay: Toxicity in BALB/c mdb mouse implanted with mouse 4T1 cells assessed as serum urea level at 300 umol/kg, ip administered five times weekly measured at 29 day post cell innoculum (reference value: 3.8 +/- […]); assay type: organism-based; details: in vivo, 696 h
LoVo/DX [23] = assay: Induction of apoptosis in human LoVo/DX cells assessed as late apoptotic cells at 15 uM after 24 hrs by APC-Annexin-V/propidium iodide staining based flow cytometric method relative to control; assay type: functional
Mus musculus [24] = assay: Toxicity in BALB/c mdb mouse implanted with mouse 4T1 cells assessed as spleen weight at 300 umol/kg, ip administered five times weekly measured at 29 day post cell innoculum (reference value: 0.603 +/- 0.133 g); assay type: organism-based; details: in vivo, 696 h
4T1 [25] = assay: Anti-tumor activity against mouse 4T1 cells implanted in BALB/c mdb mouse assessed as tumor growth inhibition at 300 umol/kg, ip administered five times weekly measured on day 29 post cell innoculum relative to control; assay type: functional; details: 4T1, ip, 696 h, read-out: TGI
LoVo [26] = assay: Induction of apoptosis in human LoVo cells assessed as late apoptotic cells at 15 uM after 24 hrs by APC-Annexin-V/propidium iodide staining based flow cytometric method relative to control; assay type: functional
Mus musculus [27] = assay: Toxicity in BALB/c mdb mouse implanted with mouse 4T1 cells assessed as body weight loss at 300 umol/kg, ip administered on day 14 post cell innoculum; assay type: organism-based; details: in vivo
LoVo/DX [28] = assay: Induction of apoptosis in human LoVo/DX cells assessed as increase in caspase3/7 activity at >15 uM using Ac-DEVD-ACC as substrate pretreated for 24 hrs followed by substrate addition measured for 2 hrs by fluorescence assay; assay type: functional, cell-based
MES-SA = assay: Cytotoxicity against human MESSA cells after 72 hrs by sulforhodamine B assay; assay type: functional, cell-based
LoVo [29] = assay: Cytotoxicity against human LoVo cells assessed as cell death at >15 uM after 24 hrs; assay type: cell-based
LoVo [30] = assay: Potency index, ratio of sulforaphane IC50 to compound IC50 for human LoVo cells; assay type: functional
A549 = assay: Cytotoxicity against human A549 cells after 72 hrs by sulforhodamine B assay; assay type: functional, cell-based; details: A549, 72 h
[31] = Resistance index, ratio of IC50 for human HL60/MX2 cells to IC50 for human HL60 cells; assay type: functional
[32] = Resistance index, ratio of IC50 for human LoVo/DX cells to IC50 for human LoVo cells; assay type: functional
[33] = Cytotoxicity against human LoVo/DX cells assessed as cell death at >15 uM after 24 hrs; assay type: cell-based
BALB/3T3 = assay: Cytotoxicity against mouse BALB/3T3 cells after 72 hrs by sulforhodamine B assay; assay type: cell-based; details: BALB/3T3, 72 h
LoVo [34] = assay: Potency index, ratio of benzyl isothiocyanate IC50 to compound IC50 for human LoVo cells; assay type: functional
LoVo/DX [35] = assay: Cell cycle arrest in human LoVo/DX cells at 15 uM after 24 hrs by propidium iodide staining based flow cytometric method; assay type: functional
LoVo [36] = assay: Induction of apoptosis in human LoVo cells assessed as increase in caspase3/7 activity at >15 uM using Ac-DEVD-ACC as substrate pretreated for 24 hrs followed by substrate addition measured for 2 hrs by fluorescence assay; assay type: functional, cell-based
MES-SA/Dx5 = assay: Cytotoxicity against human MESSA/DX5 cells after 72 hrs by sulforhodamine B assay; assay type: functional, cell-based; details: MES-SA/Dx5, 72 h
HL60/MX2 = assay: Cytotoxicity against human HL60/MX2 cells after 72 hrs by sulforhodamine B assay; assay type: functional, cell-based; details: HL60/MX2, 72 h
Mus musculus [37] = assay: Toxicity in BALB/c mdb mouse implanted with mouse 4T1 cells assessed as body weight loss at 300 umol/kg, ip administered five times weekly measured 3 times weekly during compound dosing; assay type: organism-based; details: in vivo
HL-60 = assay: Cytotoxicity against human HL60 cells after 72 hrs by sulforhodamine B assay; assay type: functional, cell-based; details: HL-60, 72 h
[38] = Cytotoxicity against human LoVo/DX cells after 72 hrs by sulforhodamine B assay; assay type: functional, cell-based
LoVo [39] = assay: Cytotoxicity against human LoVo cells after 72 hrs by sulforhodamine B assay; assay type: functional, cell-based
4T1 [40] = assay: Cytotoxicity against mouse 4T1 cells after 72 hrs by sulforhodamine B assay; assay type: functional, cell-based; details: 4T1, 72 h

For `S=C=NCc1ccccc1` [BENZYL ISOTHIOCYANATE], the Activity (LoVo [1]) was “Active”, the Activity (Mus musculus [2]) was 9.7 µmol/L and the Activity (LoVo [3]) was 17.8%. The “fold change (FC)” value [4] was 9.4, the Activity (Mus musculus [5]) was 8.8 ×10⁶ /uL and the Activity (LoVo [6]) was “Active”. The Activity (Mus musculus [7]) was 0.13 g, the inhibition in vivo at 300 µmol/kg (4T1 [8]) was 18.1% and the Activity (Mus musculus [9]) was 45.1%. For the same molecule, the Activity (Mus musculus [10]) was 871 ×10³ /uL, the Activity (LoVo [11]) was 67.6% and the Activity (Mus musculus [12]) was 16 g/dL. For the same molecule, the Activity (Mus musculus [13]) was 1.21 g, the Activity [14] was 64.6% and the Activity (Mus musculus [15]) was “Toxic”. The “fold change (FC)” value (LoVo [16]) was 11, the Activity (Mus musculus [17]) was 300.8 ×10³ /uL and the Activity (Mus musculus [18]) was 0.245 g. For the same molecule, the Activity (Mus musculus [19]) was 158.6 U/L, the Activity (4T1 [20]) was 36 and the Activity (Mus musculus [21]) was 21.5 U/L. The Activity (Mus musculus [22]) was 5.6 mmol/L, the Activity (LoVo/DX [23]) was “Active” and the Activity (Mus musculus [24]) was 0.428 g. The inhibition in vivo at 300 µmol/kg (4T1 [25]) was 26.8%, the Activity (LoVo [26]) was “Active” and the Activity (Mus musculus [27]) was “Non-Toxic”.
With `CC(C)OP(=O)(CCCCCCN=C=S)OC(C)C` the Activity (LoVo/DX [28]) was “inactive”, the Activity (LoVo [1]) was “inactive” and the IC50 (MES-SA) was 9.5 µM. For the same molecule, the Activity (LoVo [29]) was “Toxic”, the Activity (Mus musculus [2]) was 7.1 µmol/L and the “Ratio IC50” value (LoVo [30]) was 10. For the same molecule, the IC50 (A549) was 10 µM, the “Ratio IC50” value [31] was 1.4 and the Activity (LoVo [3]) was “inactive”. For the same molecule, the “fold change (FC)” value [4] was 2.2, the Activity (Mus musculus [5]) was 10 ×10⁶ /uL and the Activity (LoVo [6]) was “Active”. It also gave an Activity (Mus musculus [7]) of 0.147 g, an inhibition in vivo at 300 µmol/kg (4T1 [8]) of 40.4 to 41% and an Activity (Mus musculus [9]) of 49.6%. For the same molecule, the Activity (Mus musculus [10]) was 767 ×10³ /uL, the Activity (LoVo [11]) was 35% and the Activity (Mus musculus [12]) was 18.2 g/dL. For the same molecule, the “Ratio IC50” value [32] was 3.5, the Activity (Mus musculus [13]) was 1.32 g and the Activity [33] was “Toxic”. For the same molecule, the IC50 (BALB/3T3) was 11.7 µM, the Activity [14] was 35% and the “Ratio IC50” value (LoVo [34]) was 5. The “fold change (FC)” value (LoVo [16]) was 3, the Activity (LoVo/DX [35]) was “inactive” and the Activity (Mus musculus [17]) was 259.1 ×10³ /uL. For the same molecule, the Activity (LoVo [36]) was “inactive”, the IC50 (MES-SA/Dx5) was 5.8 µM and the IC50 (HL60/MX2) was 4 µM. For the same molecule, the Activity (Mus musculus [37]) was “<= 10%”, the Activity (Mus musculus [18]) was 0.222 g and the Activity (Mus musculus [19]) was 163.3 U/L. For the same molecule, the IC50 (HL-60) was 2900 nM, the IC50 [38] was 9.4 µM and the Activity (4T1 [20]) was 49. For the same molecule, the IC50 (LoVo [39]) was 2700 nM, the Activity (Mus musculus [21]) was 26.6 U/L and the Activity (Mus musculus [22]) was 4.7 mmol/L. For the same molecule, the Activity (LoVo/DX [23]) was “Active”, the Activity (Mus musculus [24]) was 0.535 g and the IC50 (4T1 [40]) was 2500 nM. For the same molecule, the inhibition in vivo at 300 µmol/kg (4T1 [25]) was -0.2% and the Activity (LoVo [26]) was “Active”.
